Measurements: patent US4153709A, “N-Heterocyclic ureas as immune regulants” (Eli Lilly and Company, priority 1977, dated 1979)
Several values for one entry are separate records, joined by “and”; a condition that tells them apart may be missing. Equal entries are not always repeated.

Experiments:
[1] = tested on: Salmonella typhimurium G46 missense histidine-auxotroph; experiment: Host mediated assay (in vivo mutagenicity), G46 indicator (Table 22); design: species or system Salmonella typhimurium in Cox white Swiss male mice; details: s.c.
Experimental: Cox white Swiss male mice 25-30 grams were used in all in vivo tests.
A. Drug Administration: Appropriate solvents were used where applicable with a solvent control run within each test. […] The organisms were grown to stationary phase, then diluted with normal saline to give an inoculum near 1×10^8 organisms per milliliter. The abdominal area of the drug-treated mouse was swabbed with alcohol and two milliliters of bacterial culture were injected into the abdominal cavity of the mouse. The mice were returned to their cages for 3-4 hours.
C. Autopsy and Recovery: The mice were sacrificed individually by cervical dislocation prior to each autopsy. The abdominal areas were soaked with ethanol. The peritoneum was bared and 2.5 ml. of sterile normal saline was injected into the peritoneal cavity using a sterile (3-ml. plastic syringe with a 20-gauge needle. After insertion, the needle is turned bevel up and the saline was expelled into the cavity; while the needle remains through the peritoneum, keeping the point of the needle in sight pressed against the peritoneal wall, the abdomen of the mouse was massaged to mix contents. The saline wash was removed from the abdominal cavity back into the syringe. The needle was removed and the contents expelled into an appropriately marked tube and iced 4° C.
D. Dilution and Plating: One-ml. samples were plated at 10° dilution on all mice to determine revertants (histidine+).
A one-milliliter sample from the untreated dilutions from control animals is plated 10^-6, 10^-7, and 10^-8 dilutions with excess histidine to determine mutable population (histidine-).

[2] = tested on: antibody to sheep red blood cells; experiment: Oral immunoregulating activity in marmosets (Table 17); type: in vivo
Experimental: The animals in the treated group received 10 daily 100 mg/kg doses of the drug by oral gavage. On the 4th treatment day, these animals and a similar group of controls were given intraperitoneal injections of 1×10^9 sheep red blood cells. On the 12th day following antigen injection, serum levels of antibody were determined.
*Notation: Day 0 = day of antigen injection, Day -1 = day previous, Day +

[3] = tested on: twelve histidine-auxotrophs of Salmonella typhimurium; type: in vivo, Salmonella typhimurium in Cox white Swiss male mice; details: 300 mg/kg
Experimental: The in vivo and in vitro mutagenic potential of 1-(6-methoxy-2-benzothiazolyl)-3-phenyl-urea was negative when tested versus the twelve histidine-auxotrophs of Salmonella typhimurium at a level of 300 mg/kg in vivo and 750 mcg/ml in vitro. Imuran and Cytoxan, compounds with immunosuppressive activity; Streptozotacin, N-nitrosodimethylamine (DMNA) and trimethylenemelamine (TEM) known mutagens and/or carcinogens; and Acetylsalicylic Acid (ASA) were used as control compounds.
A. Drug Administration: Appropriate solvents were used where applicable with a solvent control run within each test. The compounds to be tested were given either subcutaneously along the backbone of the mouse (0.1 ml.) or by oral gavage (0.5 ml.) B. Inoculation Technique: The histidine- cultures G46, C209, C3076, and D3056 used as the TA15 series have lost pathogenicity to mice because of absence or decrease in the lipopolysaccharide coat. The organisms were grown to stationary phase, then diluted with normal saline to give an inoculum near 1×10^8 organisms per milliliter. The abdominal area of the drug-treated mouse was swabbed with alcohol and two milliliters of bacterial culture were injected into the abdominal cavity of the mouse. The mice were returned to their cages for 3-4 hours.
C. Autopsy and Recovery: The mice were sacrificed individually by cervical dislocation prior to each autopsy. […]

[4] = tested on: mouse skin graft rejection (AKR skin on C3H mice); experiment: Suppression of rejection of mouse-tail skin grafts (Table 19); type: in vivo, mice (C3H recipients, AKR donors); details: 50 mg/kg/2 days, POT vehicle, control 19.6 ± 1.3
Source text: Compounds disclosed herein have shown activity in suppressing the rejection of mouse skin grafts. […] Albino tail skin segments (AKR strain) were grafted onto the tails of groups of ten agouti recipient mice (C3H strain). Results achieved with two therapy regimens employing 1-(6-methoxy-2-benzothiazolyl)-3-phenyl urea were as follows:
*Treatment was commenced 3 days prior to grafting and continued every 2nd
**50% polyethylene glycol, 40% corn oil, 10% Tween 80

[5] = 10 daily 100 mg/kg doses oral, individual marmoset, 100 mg/kg

COc1ccc2nc(NC(=O)Nc3ccccc3)sc2c1 [Table 11: phenyl, 6-CH3 O, S, 1-(6-methoxy-2-benzothiazolyl)-3-phenyl urea]
IN VIVO mutants test/mutants control ([1]; 3 mg/kg): .95 | IN VIVO mutants test/mutants control ([1]; 30 mg/kg): .95 | IN VIVO mutants test/mutants control ([1]; 300 mg/kg, MT/MC of 3 would indicate mutagenic potential): 1.2 | IN VIVO mutants test/mutants control ([1]; .3 mg/kg): 1.25 | detectable antibody response ([2]; 10 daily 100 mg/kg doses by oral gavage, 12th day following antigen, control four out of five): none of the treated marmosets showed a detectable response | Weight Change (%) Day +6 to +19 [2, 5]: -6.8% and +9.1% and +6.0% and +5.7% | Weight Change (%) Day -7 to +6 [2, 5]: -18.8% and -6.2% and -21.4% and -5.7% and -8.2% | Antibody Titer (reciprocal) Day +12 ([2]; 10 daily 100 mg/kg doses oral, individual marmoset, Day 0 = antigen injection): < 5 | animals gaining weight by the 19th day ([2]; 10 daily 100 mg/kg doses oral, treated group): four of the five animals were gaining weight | in vivo mutagenic potential [3]: negative | Allograft Survival (Days ± S.E.) ([4]; oral): 25.2 ± 2.0 Days | Allograft Survival (Days ± S.E.) ([4]; subcutaneous): 27.7 ± 1.0 Days
